Reference: patent publication US20060223876A1, “Indoloquinone Tumor Radiation Sensitization” (priority 2005, published 2006)
Like-named read-outs stand apart in the source and are kept apart here.

Legend:
[1] = tested on: U-87 human glioblastoma cells; experiment: Long term study: EO9 and radiation therapy two non-consecutive days a week for 3 weeks, U-87 tumor xenograft growth; format: in vivo, athymic NCR NUM mice; details: for % Δ: average rate of increase of tumor volume / T2x: average doubling time of tumor volume: 2 days a week for 3 weeks
Description: The effective photon energy was 90 keV.
A protocol was investigated where EO9 and radiation therapy were administered over a longer period of time. In this study, EO9 or radiation therapy was delivered alone or in combination on two non-consecutive days a week for 3 weeks. Six groups received vehicle alone (DMSO), vehicle 30 minutes before radiation therapy (2 days×7.5 Gy), vehicle 30 minutes after radiation therapy (2 days×7.5 Gy), E09 only (2 days×3 mg/kg), EO9 […], and EO9 30 minutes after radiation therapy.

[2] = tested on: U-87 human glioblastoma cells
Description: U-87 human glioblastoma cells (American Type Culture Collection) were maintained in alpha MEM medium (Sigma) with 10% fetal bovine serum (Atlanta Biologicals). A U-87 cell suspension was injected subcutaneously into the right hind limb (5×10^5 cells in 100 μl PBS) of athymic NCR NUM mice (Taconic Farms) and allowed to grow to a hypoxic volume of ˜550 mm^3 before treatment. Tumors were treated with EO9 and a fractionated radiation therapy schedule to test the hypothesis that EO9 would sensitize tumor cells to radiation therapy. EO9 or vehicle was administered 30 minutes after each radiation therapy fraction on day 1, 2, and 3. The study used 4 treatment groups: vehicle (DMSO), radiation therapy alone (3 days×7.5 Gy), EO9 (3 days×2 mg/kg), and EO9 +radiation therapy (3 days×7.5 Gy×2 mg/kg). EO9 was administered locally by intra-tumoral injection to achieve optimal delivery.
Irradiations were performed on anesthetized mice using an X-ray machine (Pantak) operating at 250 kV, 10 mA, with a 2-mm aluminum filtration. The effective photon energy was 90 keV. Mice were anesthetized with a combination of Ketamine and Acepromazine at a concentration of 75 mg/kg and 0.30 mg/kg respectively. Each mouse was confined in a lead casing with its tumor-bearing leg extended through an opening on the side to allow the tumor to be irradiated locally.
Mixed-effects regression was used to model the base-10 logarithm of tumor volume as a function of time and treatment (tumor growth analyses). The log-transformed outcome was used because tumors of this size grow approximately exponentially, and therefore the logarithm of the tumor volume is approximately linear over time. This approach appropriately handles unbalanced data, such as a different number of measurements for different animals, and takes into account the correlation of each animal's measurements over time. These analyses were carried out with SAS 8.2 (SAS Institute Inc., Cary, N.C., 1999-2001).

[3] = EO9 3 mg/kg 30 minutes after radiation therapy (7.5 Gy)
[4] = EO9 3 mg/kg before radiation therapy (7.5 Gy)
[5] = EO9 only, 3 mg/kg intra-tumoral
[6] = EO9 + radiation therapy (3 days x 7.5 Gy x 2 mg/kg), EO9 30 minutes after each fraction

Cn1c(/C=C/CO)c(CO)c2c1C(=O)C=C(N1CC1)C2=O [EO9, 3-hydroxymethyl-5-aziridinyl-1-methyl-2-(1 H-indole-4,7-dione)-prop-β-en-α-ol]
% Δ: average rate of increase of tumor volume [1, 3]: 8 % daily increase
T2x: average doubling time of tumor volume [1, 3]: 9.1 days
% Δ: average rate of increase of tumor volume [1, 4]: 4 % daily increase
T2x: average doubling time of tumor volume [1, 4]: 17.3 days
effectiveness of dosing schedule ([1]; EO9 administered before radiation therapy): most effective dosing schedule
% Δ: average rate of increase of tumor volume [1, 5]: 12 % daily increase
T2x: average doubling time of tumor volume [1, 5]: 6.1 days
rate of tumor volume growth compared with the other groups ([1]; groups receiving EO9 before or after radiation therapy combined into a single group (FIG. 8)): slowest rate of tumor volume growth
nature of the combination effect of EO9 and radiation therapy ([2]; EO9 + radiation therapy): additive
Estimated Time (Days) for tumors to reach 2000 mm^3 [2, 6]: 20.8 days
T2x: average doubling time of tumor volume [2, 6]: 11.7 days
% Δ (95% CI): average rate of increase of tumor volume ([2]; EO9 + radiation therapy (3 days x 7.5 Gy x 2 mg/kg), EO9 intra-tumoral 30 minutes after each fraction): 6 (4, 8) % daily increase
increase of tumor doubling time vs. control ([2]; EO9 alone, 3 days x 2 mg/kg): 1.4 days
Estimated Time (Days) for tumors to reach 2000 mm^3 ([2]; EO9 alone, 3 days x 2 mg/kg intra-tumoral): 8.6 days
% Δ (95% CI): average rate of increase of tumor volume ([2]; EO9 alone, 3 days x 2 mg/kg intra-tumoral, tumors ~550 mm^3): 16 (14, 19) % daily increase
rate of tumor growth compared with the other groups ([2]; EO9 and radiation therapy): slowest rate of tumor growth
increase of mean tumor doubling time vs. control ([2]; combination of EO9 and radiation therapy): 8.5 days
